Measured values published in patent publication US20210030650A1, “USE OF A NOVEL COMPOSITION FOR PREVENTING OR SLOWING DOWN THE APPEARANCE OF UNSIGHTLY SIGNS RELATING TO THE PRESENCE OF EXCESS SEBUM” (SOCIETE D'EXPLOITATION DE PRODUITS POUR LES INDUSTRIES …, priority 2018, published 2021).
Read-outs that look alike come from different tables or passages of the source.

Key:
[1] = tested on: sebocytes of the SEBO662AR line; experiment: Overproduction of lipids by testosterone-stimulated sebocytes (Bodipy lipid droplet imaging, standardized by nuclei count); assay type: cell-based
Description: The imbalance in the cutaneous microbiota occurs in particular when the proliferation of Propionibacterium acnes is observed. In this case also, Propionibacterium acnes induces inflammation of the skin, on the one hand by inducing the overproduction of lipids by sebocytes and, on the other hand, by producing a lipase which converts triglycerides into free fatty acids, which are irritating and chemotactic for neutrophils.
The effect of the composition (C1A) on the overproduction of lipids was studied on sebocytes of the SEBO662AR line (Bioalternatives line) sensitive to stimuli, such as testosterone, to produce lipids.
The sebocytes were first of all treated for 4 hours with the composition to be tested (or a positive reference). The testosterone was then added for 7 days to the culture medium, with renewal of the treatments and of the stimulation after 3 days. The formation of lipid droplets was detected by imaging using the Bodipy® fluorescent probe and the results were standardized by counting the nuclei with Hoechst staining.
The values are expressed as means+/−sem [standard error of the mean=standard deviation/root (number of values)].
% stimulation=100×[mean (cells+treatment)/mean (cells stimulated with testosterone)]
% inhibition=100×[mean (cells+treatment)−mean (cells stimulated with testosterone)/mean (untreated cells)−mean (cells stimulated with testosterone)]

[2] = tested on: lipase; experiment: Antilipase activity, in tubo method (1,2-diglyceride to glycerol, absorbance at 570 nm); assay type: biochemical; conditions: for % inhibition of the lipase: Table 11 experiment
Protocol: This involves studying the ability of a composition to […] and regulate the activity of the lipase enzyme by an in tubo method, said enzyme having an inflammatory action.
The samples in the evaluation test are placed in tubo in the presence of lipase and 1,2-diglyceride and the absorbance of the samples is measured with a spectrophotometer at the wavelength 570 nm as soon as they are prepared and then after 60 minutes of incubation at 37° C., under the same spectral conditions. By virtue of a range of glycerol, the lipase activity of the samples can be calculated, as well as the percentage of inhibition, according to the following formulae:
Lipase activity=(amount of glycerol formed between 0 and 60 minutes)/(60 minutes×sample volume)
Percentage of inhibition=100×[(lipase activity of the control group)−(lipase activity of the test product)]/(lipase activity of the control group).

[3] = Table 9, 1 nM testosterone, 0.006% compound
[4] = Table 9, 1 nM testosterone, 0.012% compound

With O=C(O)CC(O)C(=O)OC1(C(=O)O)CC(OC(=O)C=Cc2ccc(O)c(O)c2)C(OC(=O)C=Cc2ccc(O)c(O)c2)C(OC(=O)C=Cc2ccc(O)c(O)c2)C1 (stereo not drawn) [Compound of formula (Ia), 1-O-Maloyl-3,4,5-tri-O-caffeoylquinic acid] the “Lipids, % change vs testosterone-stimulated cells” value (“Lipids, % change” below) ([1]; Table 9, 1 nM testosterone, 0.0012% compound) was 21, the “Lipids, % change” value [1, 3] was −34 and the “Lipids, % inhibition” value [1, 3] was 38%. For the same compound, the “Lipids, % change” value [1, 4] was −29, the “Lipids, % inhibition” value [1, 4] was 32% and the Lipase activity ([2]; Table 11, 0.00012% by weight, control 4.72) was 4.65 +/− 0.03 mU/ml. The Lipase activity ([2]; Table 11, 0.00024% by weight, control 4.72) was 4.15 +/− 0.03 mU/ml, the Lipase activity ([2]; Table 11, 0.0006% by weight, control 4.72) was 2.16 +/− 0.07 mU/ml and the Lipase activity ([2]; Table 11, 0.0012% by weight, control 4.72) was 1.02 +/− 0.01 mU/ml. For the same compound, the “% inhibition of the lipase” value ([2]; 0.0006% by weight) was 54% and the “% inhibition of the lipase” value ([2]; 0.0012% by weight) was 78%.
In the case of CC(O)CO (stereo not drawn) [Propylene Glycol], the Lipase activity ([2]; Table 10, product at 1% by weight, 60 minutes at 37° C., control 4.21) is reported as 6.40 +/− 0.05 mU/m1.
O=C1O[C@H]([C@@H](O)CO)C(O)=C1O [Vitamin C, reference compound] was tested, and the Lipase activity ([2]; Table 10, positive reference, concentration not given, 60 minutes at 37° C., control 4.21) was 2.11 +/− 0.01 mU/m1 and the Lipase activity ([2]; Table 11, positive reference, concentration not given, control 4.72) was 1.36 +/− 0.01 mU/ml.
With C[C@]12C=CC(=O)N[C@@H]1CC[C@@H]1[C@@H]2CC[C@]2(C)[C@@H](C(=O)Nc3cc(C(F)(F)F)ccc3C(F)(F)F)CC[C@@H]12 [dutasteride, reference compound] the inhibition at 1 µM ([1]; Table 8, cells stimulated with 1 nM testosterone, 1 μM dutasteride, read-out: Lipids (fluorescence intensity)/number of cells, % inhibition) was 113%, the “Lipids (fluorescence intensity)/number of cells, % stimulation” value ([1]; Table 8, cells stimulated with 1 nM testosterone, 1 μM dutasteride, stimulated untreated cells = 100) was 22% and the “Lipids, % change” value ([1]; Table 9, 1 nM testosterone, 1 μM dutasteride) was −82. The inhibition at 1 µM ([1]; Table 9, 1 nM testosterone, 1 μM dutasteride, read-out: Lipids, % inhibition) was 91%.
